Assay results taken from paper PMC11037862 (ACS chemical neuroscience, 2023).

Biological target: S1PR1 (sphingosine-1-phosphate receptor 1) (Homo sapiens, UniProt P21453)
Assay: saturation autoradiography with the tritiated ligand on human brain sections

Sequence of S1PR1 (sphingosine-1-phosphate receptor 1) (P21453 whole entry): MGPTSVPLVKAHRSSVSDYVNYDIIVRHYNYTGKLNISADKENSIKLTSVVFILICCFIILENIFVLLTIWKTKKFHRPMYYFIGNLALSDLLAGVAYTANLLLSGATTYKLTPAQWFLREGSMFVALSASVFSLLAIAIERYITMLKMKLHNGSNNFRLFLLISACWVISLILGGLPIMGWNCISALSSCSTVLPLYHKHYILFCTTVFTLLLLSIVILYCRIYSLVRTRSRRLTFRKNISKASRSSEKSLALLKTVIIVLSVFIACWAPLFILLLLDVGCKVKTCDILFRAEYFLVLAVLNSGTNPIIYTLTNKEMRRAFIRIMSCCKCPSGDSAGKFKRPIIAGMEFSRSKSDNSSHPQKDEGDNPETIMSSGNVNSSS

Kd: 2.7 ± 0.2 nM
Substance: [^3H]CS1P1
